Source: patent US8592419B2, “Ceramides and apoptosis-signaling ligand” (MUSC Foundation for Research Development, priority 2004, dated 2013)
Where a SMILES comes first, the peptide text is derived from it. [ ]: non-standard residue; d: D form. The star is where a group is joined. Sta = CC(C)C[C@H](N)[C@@H](O)CC(=O)O; Isovaleryl = CC(C)CC(=O)*; Cbz = O=C(OCc1ccccc1)*; CH2F = FC*

Tests used:
lysosomes of DU145 cells = assay: Lysosomal stability assay (LysoTracker Red); type: cell-based, human; details: DU145 cells, 1 hour; LCL204 10 μM, C6-ceramide 30 μM, B13 20 μM
Experimental: Lysosoinal stability assay. Lysosomal stability was measured using the fluorescent dye LysoTracker Red (LTR). Cells were seeded overnight in 60 mm plates. The next day, medium was removed and replaced with medium containing 200 nM LTR. Cells were loaded with LTR for 30 minutes at 37° C. LTR was removed and cells were washed once with PBS, then medium containing the treatment was added for the indicated time. After treatment, cells were lifted with trypsin, washed once in PBS, and resuspended in 0.5 mL growth medium. LTR fluorescence was measured using FACS analysis (564-606 nm) as above. A decrease in fluorescence intensity corresponded to an increase in lysosomal pH, and a minimum of 10,000 events were scored for each sample.

ASMase = biological target: T1, ASMase (Homo sapiens, UniProt P17405); assay: Acid sphingomyelinase activity assay; type: cell-based; details: DU145 cells, 2-hour LCL204 treatment
T1 construct: DU145 cells were lysed in 50 mM Tris (pH=7.4) using a probe sonicator; endogenous in cells; host or cells: DU145 (lysate of treated cells)
Experimental: Acid Sphingomyelinase Activity Assay. DU145 cells were lysed in 50 mM Tris (pH=7.4) using a probe sonicator. Cellular debris was removed after centrifugation at 3000×g for 10 minutes. Proteins (50 μg) were adjusted to a total volume of 100 μl and the reaction was started by adding 100 μl of the reaction mixture containing 1 mM EDTA, 250 mM sodium acetate (pH 5.0), 100 μM [choline-methyl-^14C] sphingomyelin and 0.1% Triton X. After incubation at 37° C. for one hour, the reaction was stopped by adding 1.5 ml of chloroform/methanol (2:1) and then 200 μl of water. Phases were separated by centrifugation at 2000×g for 5 minutes. Quantitation of the amount of released radioactive phosphocholine was determined by subjecting 400 μl of the upper phase to scintillation counting.

acid ceramidase (AC) = biological target: T2, acid ceramidase (AC) (Homo sapiens, UniProt Q13510); assay: Immunoblot of acid ceramidase protein; type: cell-based; details: DU145 cells, one hour pretreatment, then LCL204 10 μM 6 hours
T2 construct: endogenous in cells
T2 sequence (Q13510 22-395): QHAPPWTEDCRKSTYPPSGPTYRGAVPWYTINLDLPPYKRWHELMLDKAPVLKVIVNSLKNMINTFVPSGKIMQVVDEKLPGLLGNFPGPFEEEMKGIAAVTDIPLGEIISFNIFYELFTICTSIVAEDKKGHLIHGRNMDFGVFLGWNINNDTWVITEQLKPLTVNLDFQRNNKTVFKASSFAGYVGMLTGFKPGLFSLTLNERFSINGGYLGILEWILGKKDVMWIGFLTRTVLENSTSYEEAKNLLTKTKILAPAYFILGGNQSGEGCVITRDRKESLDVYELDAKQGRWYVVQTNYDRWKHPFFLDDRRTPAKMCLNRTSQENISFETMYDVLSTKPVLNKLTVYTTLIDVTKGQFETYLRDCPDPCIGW
Experimental: (§1) Immunoblot analysis. Cells were seeded in 60mm plates as described above and treated accordingly. Cells were lifted by gently scraping the plates, washed once with ice cold PBS and then lysed in lysis buffer (PBS, 1% Triton X-100, 10% glycerol) containing protease inhibitors pepstatin A (0.5 μg/ml), leupeptin (0.5 μg/ml), aprotinin (5 μg/ml), and PMSF (100 μg/ml) for 10 minutes on ice. Insoluble material was removed by centrifugation at 14,000 rpm for 15 minutes at 4° C. The supernatants were then supplemented with SDS at a final concentration of 2% and stored at −80° C. Protein concentrations were determined using the DC Protein Assay (BioRad Laboratories; Hercules, CA, USA) according to the manufacturer's instructions. 50 μg of protein per sample (unless otherwise indicated) were separated on NuPAGE 4-12% Bis-Tris gels (Invitrogen; Carlsbad, CA, USA) and transferred to nitrocellulose membranes (BioRad). Following transfer, membranes were blocked for 1 hour at room temperature in Tris-buffered saline (TBS) containing 0.1% Tween-20 and 5% nonfat dry milk and incubated overnight at 4° C. with primary antibody at a dilution of 1:2,000(actin), 1:1,000(cytochrome c, COX IV, Bax, Bak, p53, p38, P-p38), 1:500(P-JNK, JNK), 1:250 (AC, p73), or 1:400(LAMP-1, cathepsin B). Overnight incubations were performed in 5% milk in TBS-Tween. Following overnight incubation, membranes were washed three times for 10 minutes each in TBS-Tween and incubated for 1 hour at room temperature with secondary antibody in 5% milk TBS-Tween at a dilution 1:5,000 (goat anti-mouse IgG) or 1:50,000 (goat anti-rabbit). Membranes were then washed three times more and incubated for 5 minutes at room temperature with Super Signal HRP substrate (Pierce Biotechnology Inc.; Rockford, IL, USA).

L929 cells = assay: TNFα-induced PGE2 release; type: cell-based; details: TNFα-treated L929 mouse fibroblast cells, preliminary data
Text: Interleukin-1 is a major inducer of inflammation and TNF is an important regulator of the reaction. Both cytokines can activate ceramidase, and thus inhibiting the activity of ceramidase can result in an anti-inflammatory effect. This may involve the prevention of the formation of sphingosine and sphingosine phosphate which have pro-inflammatory effects. Also, inhibition of ceramidase may prevent the hyperproliferation of immune cells that are important for inflammation. […] The release of PGE2 is also shown to be inhibited by D-(N-myristolyamino)-1-phenyl-1-propanol), D-MAPP, which is an inhibitor of one of the ceramidase. This observation may be important for inhibiting inflammatory reactions that occur in conditions, such as but not limited to rheumatoid arthritis. Thus, it is possible to treat or prevent inflammation by regulating the level of cellular ceramide using the method of the invention. As discussed above, ceramide level can be increased by administering compounds of the present invention that can inhibit mitochondrial ceramidase.

DU145 cells [1] = assay: Effect of doxorubicin on apoptotic resistance of DU145 cells; type: cell-based, human; details: 0.2 μg/ml
Text: The viruses described in Rubinchik et al. had been used under in vivo conditions to treat prostate cancer xenografts. […]. […] One of the limitations in PCa gene therapy is delivery of the therapeutic gene to every cell in the tumor. One way to overcome this is to amplify the response to the delivered gene by taking advantage of the bystander effect. For example, virally-expressed wild-type p53 is capable of inducing apoptosis in many types of cancer cells and is reported to have bystander activity by inducing localized FasL expression which recruits neutrophils infiltration that is believed to play a critical role in the bystander mechanism. In practice, the bystander effect, if activated , will result in regression of a solid tumor in spite of the physician's inability to deliver, by virus or liposome, a therapeutic gene to every cell. […] In the DU145 model of prostate cancer, the inventors determined that resistance to the induction of apoptosis through the Fas receptor signaling pathway is due to overexpression of apoptotic resistance genes including cFLIPs (Hyer et al., Cancer Biology and Therapy 1(4): 405-410, 2002). […] However, expression of apoptotic resistance genes in some cancers, including in the DU145 model, make the cells relatively insensitive to vesicle-mediated bystander activity. To overcome this, a number of different chemotherapeutic drugs and other small molecules were examined for their effect on apoptotic resistance mechanisms. […] This decrease in protein levels may be due to proteasomal degradation or a translational block. Under these conditions, a 20% increase in sensitivity of apoptotic vesicles is observed with 0.2 μg/ml doxorubicin. […]

DU145 cells [2] = assay: Cell death by MTS assay, ceramide analog combined with AdGFPFasL virus; type: cell-based, human
Experimental: LCL102, a ceramidase inhibitor, which acts to increasing intracellular ceramide levels by […], were tested in this system. This molecule was highly efficient at activating cell death in DU145 cells at nontoxic doses if combined with AdGFPFasL virus at MOIs achievable in vivo. DU145 cells growing in 96 well plates at 1×10^4 cells/well are treated with either media alone or LCL102 at 2 uM for 48 hours followed by AdGFPFasL for 24 hours at the MOI (5-80). Cell death is assayed by the MTS assay. At 2 uM LCL102 and 5MOI of virus, cell death is amplified 4-fold compared to LCL102 alone (FIG. 14).

DU145 cells [3] = assay: MTS cell viability assay in DU145 cells; type: cell-based, human; details: for reproduction of the apoptotic consequences of LCL204-induced lysosomal rupture: agents that strictly alter lysosomal pH
Experimental: MTS cytotoxicity assays for LCL204 treatments. Cell viability was determined using the CellTiter 96 AQueous One Solution Cell Proliferation Assay (Promega; Madison, Wis., USA). 1×10^4 cells per well were seeded in 96-well plates overnight. The next day media was removed and replaced with either 100 μl media with vehicle control or media containing LCL204 at desired concentrations. Assays were carried out according to manufacturer's instruction as previously described (60). For experiments using enzyme inhibitors and LCL204, media was removed and replaced with 50 μl media containing vehicle only or indicated inhibitor. Cells were pretreated 1 hour at 37° C. before adding 50 μl media containing vehicle, inhibitor only, LCL204 only (2× concentration), or a combination. The remainder of the assay was carried out as described above.

PUMA = assay: Immunoblot of PUMA; type: cell-based, human; details: PPC-1/pcDNA3 cells, 40 μM SP600125 with LCL204
Experimental: as §1

T1 sequence (P17405 47-631): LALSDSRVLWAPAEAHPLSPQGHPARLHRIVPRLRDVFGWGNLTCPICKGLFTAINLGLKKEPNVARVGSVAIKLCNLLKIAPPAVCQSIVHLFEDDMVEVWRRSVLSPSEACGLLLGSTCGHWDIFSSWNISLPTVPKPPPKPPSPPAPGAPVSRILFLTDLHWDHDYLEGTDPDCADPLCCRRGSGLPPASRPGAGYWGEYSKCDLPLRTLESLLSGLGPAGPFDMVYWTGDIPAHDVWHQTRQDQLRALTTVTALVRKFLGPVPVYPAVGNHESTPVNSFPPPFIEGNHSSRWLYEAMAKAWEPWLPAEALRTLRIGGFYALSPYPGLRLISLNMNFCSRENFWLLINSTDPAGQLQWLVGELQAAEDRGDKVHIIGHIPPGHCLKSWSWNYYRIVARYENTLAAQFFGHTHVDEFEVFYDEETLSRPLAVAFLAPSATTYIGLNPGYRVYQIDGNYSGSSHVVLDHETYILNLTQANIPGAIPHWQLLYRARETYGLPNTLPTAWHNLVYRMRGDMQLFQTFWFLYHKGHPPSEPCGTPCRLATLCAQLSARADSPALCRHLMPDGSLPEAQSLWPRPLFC

CCCCCCCCCCCCCC(=O)N[C@H](CO)[C@H](O)c1ccc([N+](=O)[O-])cc1 [B13, reference compound]
shift in LTR fluorescence (rise in lysosomal pH) (lysosomes of DU145 cells): did not have this effect

CCCCCCCCCCCCC/C=C/[C@@H](O)[C@H](CO)NC(=O)CCCCC [C6-ceramide, reference compound]
shift in LTR fluorescence (rise in lysosomal pH) (lysosomes of DU145 cells): did not have this effect

CCCNC(=O)[C@H]1O[C@@H]1C(=O)N[C@H](C(=O)N1CCC[C@H]1C(=O)OC)[C@@H](C)CC [CA074Me, reference compound]
effect on LCL204-induced loss of ASMase activity (ASMase): loss of activity was blocked
effect of protease inhibitor pretreatment on LCL204-induced AC protein loss (acid ceramidase (AC)): blocked AC degradation

CCCCCCCCCCCCCC(=O)NC(C)C(O)c1ccccc1 [D-MAPP]
release of PGE2 (L929 cells): inhibited

COc1cccc2c1C(=O)c1c(O)c3c(c(O)c1C2=O)C[C@@](O)(C(=O)CO)C[C@@H]3O[C@H]1C[C@H](N)[C@H](O)[C@H](C)O1 [Doxorubicin]
cFLIP protein expression (DU145 cells [1]): decreases expression of cFLIP protein
increase in sensitivity of apoptotic vesicles (DU145 cells [1]): 20%
toxicity to DU145 cells (DU145 cells [1]): toxic to DU145 cells at 48-72 hours

CCCCCCCCCCCCCCN[C@H](CO)[C@H](O)c1ccc([N+](=O)[O-])cc1 [LCL102, (1R,2R)-2-N-Tetradecylamino-1-(4-nitro-phenyl)-1,3-propandiol]
amplification of cell death compared to LCL102 alone (DU145 cells [2]; 2 uM for 48 hours, then AdGFPFasL 5MOI for 24 hours): 4 fold
increase of the ability of AdGFPFasL to kill tumor cells (DU145 cells [2]; in vitro, subtoxic doses): as much as ten-fold

CC(C)C[C@@H](C=O)NC(=O)[C@H](CC(C)C)NC(=O)[C@H](CC(C)C)NC(=O)OCc1ccccc1 [MG132] (Cbz-Leu-Leu-Leu-aldehyde)
effect of protease inhibitor pretreatment on LCL204-induced AC protein loss (acid ceramidase (AC)): blocked AC degradation

Cl.N [NH4Cl]
reproduction of the apoptotic consequences of LCL204-induced lysosomal rupture (DU145 cells [3]): could not be reproduced

Oc1c2ccccc2c2c3c(cccc13)N=N2 [SP600125, reference compound]
time until which LCL204-induced PUMA induction was delayed (PUMA): approximately 6 hours

CO/C1=C\C(C)=C\[C@@H](C)[C@@H](O)[C@@H](C)C/C(C)=C/C=C/[C@H](OC)[C@@H]([C@@H](C)[C@@H](O)[C@H](C)[C@@]2(O)C[C@@H](O)[C@H](C)[C@@H](C(C)C)O2)OC1=O [bafilomycin A1]
reproduction of the apoptotic consequences of LCL204-induced lysosomal rupture (DU145 cells [3]): could not be reproduced

CC(C)CC(=O)N[C@H](C(=O)N[C@H](C(=O)N[C@@H](CC(C)C)[C@@H](O)CC(=O)N[C@@H](C)C(=O)N[C@@H](CC(C)C)[C@@H](O)CC(=O)O)C(C)C)C(C)C [pepstatin A] (Isovaleryl-VV[Sta]A[Sta]-OH)
effect of protease inhibitor pretreatment on LCL204-induced AC protein loss (acid ceramidase (AC)): no effect

COC(=O)C[C@H](NC(=O)[C@H](C)NC(=O)[C@@H](NC(=O)OCc1ccccc1)C(C)C)C(=O)CF [zVAD-fmk] (Cbz-Val-Ala-Asp(OMe)-CH2F)
LCL204-mediated cell death after pre-treatment with caspase inhibitor (DU145 cells [3]; pre-treated one hour, then LCL204 24 hours, especially below 15 μM LCL204): cell death was substantially reduced
effect of protease inhibitor pretreatment on LCL204-induced AC protein loss (acid ceramidase (AC)): blocked AC degradation
